ChEMBL document CHEMBL1201862, “PubChem BioAssay data set” (2004)
Calls of active or inactive are those of the source.

Assays:
[1] = ADAM10 inhibitors, peptide cleavage, dose response, biochemical, QFRET (AID 743254);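 also: ADAM10 enzyme with the DM2 quenched FRET peptide as substrate; EDANS fluorescence gain as the protease cuts the substrate; inhibitor potency against ADAM10 proteolytic activity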
[2] = molecular target: Disintegrin and metalloproteinase domain-containing protein 17 (Homo sapiens, UniProt P78536); test: ADAM17 protease inhibitors, dose response, counter-screen for ADAM10 exosite inhibitor project, biochemical, quenched FRET substrate (AID 743253)
Disintegrin and metalloproteinase domain-containing protein 17, sequence (P78536 whole entry, the tested form may be a part): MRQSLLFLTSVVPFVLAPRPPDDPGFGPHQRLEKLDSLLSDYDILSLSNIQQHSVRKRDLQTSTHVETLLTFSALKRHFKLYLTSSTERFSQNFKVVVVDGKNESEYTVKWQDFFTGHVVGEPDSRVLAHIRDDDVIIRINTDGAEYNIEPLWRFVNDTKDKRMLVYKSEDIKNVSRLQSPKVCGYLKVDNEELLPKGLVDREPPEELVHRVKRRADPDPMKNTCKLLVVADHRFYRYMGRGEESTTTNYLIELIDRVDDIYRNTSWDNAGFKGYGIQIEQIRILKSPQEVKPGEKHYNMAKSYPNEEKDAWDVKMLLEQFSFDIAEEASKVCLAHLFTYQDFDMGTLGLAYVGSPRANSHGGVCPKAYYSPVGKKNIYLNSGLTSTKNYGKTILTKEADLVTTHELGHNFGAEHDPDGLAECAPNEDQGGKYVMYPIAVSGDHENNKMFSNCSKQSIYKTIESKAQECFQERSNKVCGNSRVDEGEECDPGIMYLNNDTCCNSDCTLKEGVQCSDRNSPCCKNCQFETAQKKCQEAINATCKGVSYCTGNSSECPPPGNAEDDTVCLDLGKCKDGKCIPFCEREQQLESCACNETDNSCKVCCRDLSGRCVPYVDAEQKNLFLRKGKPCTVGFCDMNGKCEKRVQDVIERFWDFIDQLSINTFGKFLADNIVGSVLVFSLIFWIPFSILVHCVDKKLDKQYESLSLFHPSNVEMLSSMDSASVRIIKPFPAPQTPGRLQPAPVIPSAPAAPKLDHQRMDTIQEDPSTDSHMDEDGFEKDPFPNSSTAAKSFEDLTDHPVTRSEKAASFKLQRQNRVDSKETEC

[3] = molecular target: T1, Oxysterols receptor LXR-beta (Homo sapiens, UniProt P55055); format: functional, cell-based;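 also: agonist activity at LXR measured by a cell-based luminescence readout across a dose range, run as a counterscreen for daf-12 agonists; HEK293 cells with Gal4-LXR fusion and GAL4-driven luciferase reporter; potency for activation of Gal4-LXR reporter so compounds are agonists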
T1 sequence (P55055 whole entry): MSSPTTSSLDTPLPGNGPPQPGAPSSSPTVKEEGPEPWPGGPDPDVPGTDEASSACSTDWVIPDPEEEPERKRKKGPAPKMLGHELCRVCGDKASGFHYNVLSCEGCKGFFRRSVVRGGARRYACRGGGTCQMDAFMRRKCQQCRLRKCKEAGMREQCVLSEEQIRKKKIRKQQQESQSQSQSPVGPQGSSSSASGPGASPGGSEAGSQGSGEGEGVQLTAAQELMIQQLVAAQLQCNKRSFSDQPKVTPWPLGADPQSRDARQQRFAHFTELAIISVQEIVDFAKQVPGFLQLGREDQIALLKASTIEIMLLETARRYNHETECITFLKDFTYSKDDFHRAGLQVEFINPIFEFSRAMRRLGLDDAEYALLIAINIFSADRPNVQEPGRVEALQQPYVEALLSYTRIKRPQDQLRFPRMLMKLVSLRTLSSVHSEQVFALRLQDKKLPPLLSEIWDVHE

Protein skinhead-1 = molecular target: T2, Protein skinhead-1 (Caenorhabditis elegans, UniProt P34707); format: functional
T2 sequence (P34707 whole entry): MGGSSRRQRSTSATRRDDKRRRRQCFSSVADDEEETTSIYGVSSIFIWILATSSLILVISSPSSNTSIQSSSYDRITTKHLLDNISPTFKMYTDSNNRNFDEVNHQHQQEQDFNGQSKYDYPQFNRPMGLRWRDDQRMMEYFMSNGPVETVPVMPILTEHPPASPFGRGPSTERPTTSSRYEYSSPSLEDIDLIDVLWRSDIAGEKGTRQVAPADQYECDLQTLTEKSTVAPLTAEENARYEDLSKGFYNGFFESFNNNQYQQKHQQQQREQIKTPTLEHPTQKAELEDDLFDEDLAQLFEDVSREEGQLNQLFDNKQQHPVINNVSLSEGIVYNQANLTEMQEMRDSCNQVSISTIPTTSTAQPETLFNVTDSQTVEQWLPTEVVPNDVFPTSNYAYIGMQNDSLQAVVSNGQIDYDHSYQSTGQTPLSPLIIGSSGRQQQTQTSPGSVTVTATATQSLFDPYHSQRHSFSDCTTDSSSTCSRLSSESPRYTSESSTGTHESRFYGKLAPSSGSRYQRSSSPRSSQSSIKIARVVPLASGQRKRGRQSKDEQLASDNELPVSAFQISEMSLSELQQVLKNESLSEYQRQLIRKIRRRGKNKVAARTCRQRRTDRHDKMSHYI

Streptococcus = test: Group A Streptococcus viability loss, dose response, counter-screen for streptokinase expression inhibitor project, luminescence, BacTiterGlo (AID 1915); format: functional, organism-based;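 also: potency for reduction of bacterial viability or growth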
[4] = molecular target: T3, Heat shock factor protein 1 (Mus musculus, UniProt P38532); test: inhibition of MG132-induced HSE-luciferase signal, confirmation, cell-based, NIH3T3, luminescence, dose retest (AID 2382); format: functional;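 also: NIH3T3 fibroblasts with HSF1-driven luciferase reporter stressed by proteasome inhibitor MG132; luminescence from HSF1-driven luciferase expression after 8 hours of MG132 stress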
T3 sequence (P38532 whole entry): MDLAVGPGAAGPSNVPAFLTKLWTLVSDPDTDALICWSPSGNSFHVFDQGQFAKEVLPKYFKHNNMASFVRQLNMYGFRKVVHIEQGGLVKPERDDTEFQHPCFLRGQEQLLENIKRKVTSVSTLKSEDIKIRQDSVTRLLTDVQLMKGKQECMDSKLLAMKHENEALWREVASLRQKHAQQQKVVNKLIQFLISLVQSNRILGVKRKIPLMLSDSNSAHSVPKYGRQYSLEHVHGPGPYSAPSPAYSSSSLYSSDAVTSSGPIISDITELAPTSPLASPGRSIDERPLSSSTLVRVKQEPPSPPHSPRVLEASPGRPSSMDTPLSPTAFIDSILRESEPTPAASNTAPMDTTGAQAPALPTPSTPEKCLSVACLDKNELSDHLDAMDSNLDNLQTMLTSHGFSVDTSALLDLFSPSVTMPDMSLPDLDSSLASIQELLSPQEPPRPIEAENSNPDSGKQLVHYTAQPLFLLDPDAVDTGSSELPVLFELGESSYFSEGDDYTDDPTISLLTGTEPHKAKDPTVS

Streptokinase A = molecular target: T4, Streptokinase A (Streptococcus pyogenes serotype M1, UniProt P10520); test: S. pyogenes streptokinase expression inhibitors, potency, dose response, plasminogen activation absorbance, OD405 (AID 1914); format: functional, Streptococcus pyogenes M1 GAS;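 also: secreted streptokinase activity via plasminogen activation per viability signal from cell pellet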
T4 sequence (P10520 whole entry): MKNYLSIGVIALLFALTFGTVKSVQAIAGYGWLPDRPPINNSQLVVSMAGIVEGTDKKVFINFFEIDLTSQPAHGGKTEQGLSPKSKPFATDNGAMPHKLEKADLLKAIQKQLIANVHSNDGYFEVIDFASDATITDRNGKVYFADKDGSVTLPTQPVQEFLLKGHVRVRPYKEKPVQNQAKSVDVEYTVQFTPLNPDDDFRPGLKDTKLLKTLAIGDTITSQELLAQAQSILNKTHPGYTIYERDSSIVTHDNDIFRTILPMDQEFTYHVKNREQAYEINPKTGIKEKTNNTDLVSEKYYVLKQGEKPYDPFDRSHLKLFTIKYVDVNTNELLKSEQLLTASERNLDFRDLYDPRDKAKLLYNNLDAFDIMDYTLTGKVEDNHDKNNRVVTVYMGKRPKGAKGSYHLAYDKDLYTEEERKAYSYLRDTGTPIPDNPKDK

[5] = test system: Streptococcus sp. 'group A'; test: growth inhibition of control SK(-) GAS strain, dose response, counter-screen for streptokinase expression inhibitor project, luminescence, kanamycin, BacTiterGlo, confirmation (AID 1900); format: functional, organism-based
Albumin = Albumin (Bos taurus, UniProt P02769); test: Counterscreen for inhibitors of T-cell receptor (TCR)-CD3 interaction: Fluorescence-based biochemical high throughput dose response assay to identify inhibitors of T-cell receptor (TCR)-CD3 interaction using a TAMRA-labeled BSA probe.; format: functional
Albumin, sequence (P02769 whole entry): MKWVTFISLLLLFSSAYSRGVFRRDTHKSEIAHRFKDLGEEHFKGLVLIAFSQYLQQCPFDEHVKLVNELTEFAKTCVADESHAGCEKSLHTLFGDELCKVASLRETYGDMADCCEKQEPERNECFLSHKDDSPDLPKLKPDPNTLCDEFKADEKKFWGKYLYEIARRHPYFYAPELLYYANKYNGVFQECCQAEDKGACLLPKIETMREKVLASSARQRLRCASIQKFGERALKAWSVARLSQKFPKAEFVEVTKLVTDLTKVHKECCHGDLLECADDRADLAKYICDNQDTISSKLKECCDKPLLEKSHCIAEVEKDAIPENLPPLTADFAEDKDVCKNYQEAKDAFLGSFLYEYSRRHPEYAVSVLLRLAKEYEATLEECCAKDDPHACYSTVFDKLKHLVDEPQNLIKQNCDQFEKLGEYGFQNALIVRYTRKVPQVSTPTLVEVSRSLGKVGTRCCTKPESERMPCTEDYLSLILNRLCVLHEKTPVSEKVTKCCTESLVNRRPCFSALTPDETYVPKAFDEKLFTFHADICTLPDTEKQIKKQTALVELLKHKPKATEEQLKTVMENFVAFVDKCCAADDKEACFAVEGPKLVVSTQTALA

[6] = molecular target: T5, Short transient receptor potential channel 4 (Mus musculus, UniProt Q9QUQ5); test: mouse TRPC4 channel activators, dose response, cell-based, HEK293 TRPC4/mu-opioid, Fluo-4 calcium (AID 434937); format: functional
T5 sequence (Q9QUQ5 whole entry): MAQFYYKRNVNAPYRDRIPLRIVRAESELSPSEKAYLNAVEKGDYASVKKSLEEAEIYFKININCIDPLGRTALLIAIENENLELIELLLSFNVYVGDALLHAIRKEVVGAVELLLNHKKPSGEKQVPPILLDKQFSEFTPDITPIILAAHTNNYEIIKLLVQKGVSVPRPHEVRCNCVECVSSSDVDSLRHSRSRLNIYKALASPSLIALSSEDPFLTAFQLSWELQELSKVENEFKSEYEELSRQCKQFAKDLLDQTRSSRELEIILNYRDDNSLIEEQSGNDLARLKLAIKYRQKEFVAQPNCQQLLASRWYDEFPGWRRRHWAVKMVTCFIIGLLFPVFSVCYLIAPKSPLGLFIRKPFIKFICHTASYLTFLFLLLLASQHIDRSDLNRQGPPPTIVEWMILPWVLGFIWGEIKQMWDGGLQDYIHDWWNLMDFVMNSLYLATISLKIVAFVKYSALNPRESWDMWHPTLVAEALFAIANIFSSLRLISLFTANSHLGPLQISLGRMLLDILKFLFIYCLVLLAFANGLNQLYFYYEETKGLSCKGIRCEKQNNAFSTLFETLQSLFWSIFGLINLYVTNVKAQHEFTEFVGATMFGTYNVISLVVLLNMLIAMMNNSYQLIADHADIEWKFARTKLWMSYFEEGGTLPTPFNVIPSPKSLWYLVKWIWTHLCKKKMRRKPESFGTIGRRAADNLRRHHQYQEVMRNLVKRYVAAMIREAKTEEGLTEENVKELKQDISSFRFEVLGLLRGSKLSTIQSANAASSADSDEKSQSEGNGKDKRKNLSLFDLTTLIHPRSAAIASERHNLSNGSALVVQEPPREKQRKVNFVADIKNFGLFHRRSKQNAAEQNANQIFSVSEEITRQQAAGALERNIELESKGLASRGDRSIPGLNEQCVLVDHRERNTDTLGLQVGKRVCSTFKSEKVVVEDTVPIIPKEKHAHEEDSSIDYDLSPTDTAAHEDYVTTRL

[7] = molecular target: T6, Replicative DNA helicase DnaB (Mycobacterium tuberculosis, UniProt P9WMR3); test: DnaB intein splicing inhibitors, dose response, biochemical, cell-free fluorescence (AID 449749); format: functional
T6 sequence (P9WMR3 whole entry): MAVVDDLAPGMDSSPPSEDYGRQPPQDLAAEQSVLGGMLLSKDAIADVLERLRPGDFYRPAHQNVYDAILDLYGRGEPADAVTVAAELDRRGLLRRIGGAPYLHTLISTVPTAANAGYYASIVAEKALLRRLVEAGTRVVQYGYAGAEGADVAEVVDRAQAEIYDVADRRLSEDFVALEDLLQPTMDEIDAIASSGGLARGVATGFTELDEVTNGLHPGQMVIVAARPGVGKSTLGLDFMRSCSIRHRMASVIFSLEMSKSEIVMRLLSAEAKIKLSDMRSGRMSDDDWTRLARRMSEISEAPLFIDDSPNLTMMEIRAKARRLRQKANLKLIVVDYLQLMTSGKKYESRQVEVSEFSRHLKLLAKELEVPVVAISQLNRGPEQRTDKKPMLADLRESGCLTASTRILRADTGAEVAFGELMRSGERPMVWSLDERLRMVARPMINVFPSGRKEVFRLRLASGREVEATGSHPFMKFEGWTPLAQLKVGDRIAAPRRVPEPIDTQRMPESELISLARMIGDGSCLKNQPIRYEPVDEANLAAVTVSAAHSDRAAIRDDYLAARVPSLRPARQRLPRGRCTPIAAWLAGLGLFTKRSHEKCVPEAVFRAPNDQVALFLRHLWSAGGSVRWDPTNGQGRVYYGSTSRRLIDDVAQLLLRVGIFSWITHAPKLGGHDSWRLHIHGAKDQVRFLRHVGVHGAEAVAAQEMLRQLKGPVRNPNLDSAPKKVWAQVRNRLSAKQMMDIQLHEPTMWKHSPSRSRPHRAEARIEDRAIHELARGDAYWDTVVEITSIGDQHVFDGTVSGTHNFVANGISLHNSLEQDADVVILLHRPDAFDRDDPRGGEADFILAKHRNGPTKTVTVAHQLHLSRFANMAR

Protein RecA = molecular target: T7, Protein RecA (Mycobacterium tuberculosis, UniProt P9WHJ3); test: Fluorescence Cell-Free Homogeneous Dose Retest to Identify Inhibitors of RecA-Intein Splicing Activity. [Related pubchem assays (depositor defined):AID2097, AID2223, AID489010, AID492950]; format: functional
T7 sequence (P9WHJ3 whole entry): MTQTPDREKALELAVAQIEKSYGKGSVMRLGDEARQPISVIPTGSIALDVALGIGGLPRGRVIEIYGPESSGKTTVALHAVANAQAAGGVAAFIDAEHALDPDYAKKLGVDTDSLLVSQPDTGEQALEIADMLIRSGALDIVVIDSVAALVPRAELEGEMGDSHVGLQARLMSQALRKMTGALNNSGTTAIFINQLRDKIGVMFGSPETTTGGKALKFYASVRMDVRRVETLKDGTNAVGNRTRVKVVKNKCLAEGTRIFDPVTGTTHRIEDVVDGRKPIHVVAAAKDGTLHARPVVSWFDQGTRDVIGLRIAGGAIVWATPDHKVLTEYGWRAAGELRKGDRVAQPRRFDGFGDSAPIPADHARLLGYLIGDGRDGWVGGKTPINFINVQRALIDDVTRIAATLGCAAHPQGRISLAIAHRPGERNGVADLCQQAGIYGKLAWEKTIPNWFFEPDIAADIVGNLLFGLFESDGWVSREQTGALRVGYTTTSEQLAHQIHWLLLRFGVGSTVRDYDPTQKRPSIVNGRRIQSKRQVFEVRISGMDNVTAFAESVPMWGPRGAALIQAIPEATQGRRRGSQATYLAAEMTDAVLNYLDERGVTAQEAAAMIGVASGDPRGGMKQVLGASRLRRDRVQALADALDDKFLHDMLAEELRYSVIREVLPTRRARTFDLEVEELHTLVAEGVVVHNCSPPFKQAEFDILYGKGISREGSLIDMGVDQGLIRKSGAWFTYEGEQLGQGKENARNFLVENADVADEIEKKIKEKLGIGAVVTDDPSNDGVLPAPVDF

Protein Wnt-3a = Protein Wnt-3a (Mus musculus, UniProt P27467); test: SAR analysis of small molecule antagonists of Gli-SUFU in a Wnt3a luminescent reporter assay.; format: functional
Protein Wnt-3a, sequence (P27467 whole entry): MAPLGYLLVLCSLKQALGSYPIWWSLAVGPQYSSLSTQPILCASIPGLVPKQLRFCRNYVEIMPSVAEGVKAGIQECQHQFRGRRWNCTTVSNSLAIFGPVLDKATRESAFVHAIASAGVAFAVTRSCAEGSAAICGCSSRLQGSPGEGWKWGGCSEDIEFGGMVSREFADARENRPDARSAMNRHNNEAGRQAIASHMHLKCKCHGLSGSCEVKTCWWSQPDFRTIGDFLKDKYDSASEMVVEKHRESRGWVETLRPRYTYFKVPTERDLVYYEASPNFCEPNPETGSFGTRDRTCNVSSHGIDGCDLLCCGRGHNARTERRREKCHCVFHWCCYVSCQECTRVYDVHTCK

[8] = HEK293T cytotoxicity, dose response, cytotoxicity control for miR-122 modulator project, cell-based, inhibitor set, cherry-pick, set 2 (AID 720697); format: functional

Compound: CN(C)c1ccc(C(CNS(=O)(=O)c2ccc(F)c(F)c2)c2c[nH]c3ccccc23)cc1 (stereo not drawn)
- IC50 [1]: > 7.72 µM (active)
- IC50 [2]: > 69.5 µM (inactive)

Compound: Clc1ccc(OCCSc2ncccn2)c(Br)c1
- EC50 [3]: > 67.5 µM (inactive)
- IC50 (Protein skinhead-1): 40.4 µM (active)

Compound: COc1ccc(C(=O)NNC(=S)NC(=O)c2cccs2)cc1
- EC50 (Streptococcus): 15.1 µM (active)
- EC50 [4]: > 195 µM (not active)
- EC50 (Streptokinase A): > 150 µM (not active)
- EC50 [5]: 3.71 µM (active)
- IC50 (Albumin): > 94 µM (inactive)
- EC50 [6]: 10.6 µM (active)

Compound: CCOC(=O)c1ccc(N2C(=O)c3[nH]nc(-c4ccco4)c3C2c2ccc([N+](=O)[O-])cc2)cc1 (stereo not drawn)
- AC50 [7]: 2.92 µM (active)
- IC50 [1]: 17 µM (inactive)
- IC50 [2]: > 69.5 µM (inactive)
- EC50 (Protein RecA): 56.2 µM (active)

Compound: CCOC(=O)c1sc2nc3c(cc2c1N)COC(C)(CC)C3 (stereo not drawn)
- EC50 [3]: > 67.5 µM (inactive)

Compound: O=C(Nc1cc(N2CCCCC2)ncn1)c1ccc(Cl)cc1
- IC50 (Protein Wnt-3a): > 21.8 µM (inactive)

Compound: O=C(Nc1cc(N2CCCCC2)ncn1)c1ccccc1F
- IC50 (Protein Wnt-3a): < 0.0426 µM (active)

Compound: C/C=C/c1ccc([C@@H]2[C@@H](CO)N[C@@H]2CN(CC)C(=O)CN2CCOCC2)cc1
- AC50 [8]: 0.431 µM (active)
